# Key:
# Assay type in all cases: cell-based, human
# phospho-CHK1 (S345) = experiment: Western blot, phospho-CHK1 in RPE1-hTERT-cMYC-ER cells (replication stress); details: 72 h; NZ-175 at 100 nM with 4-OHT
# Protocol: (§1) FIG. 15. NZ-175 rescues oncogenic c-MYC induced replication stress (100 nM, 72 h) (A) Western blot of RPE1-hTERT-cMYC-ER treated with 4-OHT and/or NZ-175 at 100 nM for 72 hours. 4-OHT treatment simulates oncogenic c-MYC-induced replication stress, observed by upregulation of phospho-CHK1 (S345), pRPA (S4/S8) and γH2AX. […] Quantification of blot is shown for pCHK1 […] (B), pRPA (S4/S8) (C), and YH2AX (D). n=3, mean±SEM, *p<0.05, ** p<0.01, *** p<0.001.
# (§2) Cells were homogenised in protein lysis buffer consisting of 0.1 M Tris pH 8.0, 0.1 M NaCl, 5% glycerol, IGEPAL® CA-630 (#18896. Sigma-Aldrich) and 5 mM EDTA, 0.1 M N-ethyl maleimide (ThermoFisher, #23030) and protease inhibitor (Cell Signalling Technologies, #5871). Protein concentrations were determined using the BCA assay to ensure equal loading. […] The membranes were immunoblotted with primary antibodies, overnight at 4° C. […]
# (§3) Membranes were then incubated with horseradish peroxidase (HRP)-conjugated secondary antibodies (Rabbit #7074 and Mouse #7076) purchased from Cell Signalling Technologies for 1 hour and the HRP signal was detected using EZ-ECL Enhanced Chemiluminescence Detection Kit for HRP (#20-500-500, Sartorius), and imaged with an Alliance Q9 Advanced (UVITec). […]
# (§4) To see if NZ-175 could rescue this phenotype, RPE1-hTERT-cMYC-ER cells treated with 4-OHT and/or 100 nM NZ-175 for 72 h were analysed by Western blotting (FIG. 15A). […]
# pRPA (S4/S8) = experiment: Western blot, pRPA (S4/S8) in RPE1-hTERT-cMYC-ER cells (replication stress); details: 72 h; NZ-175 at 100 nM with 4-OHT
# Protocol: as §1, §2, §3, §4
# γH2AX = experiment: Western blot, γH2AX in RPE1-hTERT-cMYC-ER cells (replication stress); details: 72 h; NZ-175 at 100 nM with 4-OHT
# Protocol: as §1, §2, §3, §4
# c-MYC controlled genes = experiment: RT-qPCR of c-MYC controlled genes in CAL51 cells; details: 100 nM, 72 hours
# Protocol: FIG. 11. RT-qPCR quantification of expression of c-MYC controlled genes in CAL51 triple negative breast cancer cell line treated with DMSO, 100 nM (+)-JQ1 or 100 nM NZ-147 for 72 hours. […] MDM2 (A) and CCNE (B) are controlled by cMYC in oncogenic settings, PAICS (C) is a putative target of c-MYC, and eIF4E (D) is a known target of cMYC. n=3, *p<0.05, ** p<0.01, *** p<0.001.
# RNA was extracted with the Qiagen RNeasy Mini kit following manufacturers protocol. RT-qPCR SYBR assay was carried out with Mesa Blue following manufacturers instructions, 80 ng RNA per well, experimental triplicates, BioRad CTX Connect qPCR machine. RNA levels were normalized to GAPDH. Experiments were done in biological triplicate. The primers used were as follows:
# The levels of c-MYC controlled genes (determined using RT-qPCR) in CAL51 triple negative breast cancer cell line after treatment with DMSO, 100 nM (+)-JQ1 or 100 nM NZ-147 for 72 hours is shown in FIG. 11. In particular MDM2 (FIG. 11A) and CCNE (FIG. 11B) are controlled by cMYC in oncogenic settings, PAICS (FIG. 11C) is a putative target of c-MYC, and elF4E (FIG. 11D) is a known target of c-MYC.
# A549 cells [1] = experiment: Cell viability assay (CellTiter Glo), A549; details: A549, increasing concentrations
# Protocol: (§5) A549 and H1299 cells were seeded in OptiPlate-384 well plates and treated with increasing concentrations of (+)-JQ1 or NZ-147 from 0 μM to 10 µM in Example 8 and with increasing concentrations of NZ-175 from 0 µM to 10 µM in Example 9. Cells were treated for 120 h before using the luciferase based CellTiter Glo assay (Promega) to measure cell viability.
# (§6) Cell viability assay was performed in A549 and H1299 cells, which were treated with different concentrations of (+)-JQ1 or NZ-147 at 100 nM for 72 hours (FIG. 10B).
# (§7) Cell viability assay was performed in A549 and H1299 cells, which were treated with different concentrations of NZ-147 at 100 nM for 72 hours (FIG. 16B).
# H1299 cells [2] = experiment: Cell viability assay (CellTiter Glo), H1299; details: H1299, increasing concentrations
# Protocol: as §5, §6, §7
# p-Ub (S65) [3] = experiment: Western blot, p-Ub (S65) in PINK-null PD patient fibroblasts
# Protocol: (§8) FIG. 7. ULKTACs restore mitophagic activity in PINK-null PD patient fibroblasts (A) Western blot of patient derived fibroblasts, healthy control vs. PINK null, treated with […] NZ-65 or NZ-66 for 18 h or 10 μM FCCP for 2 h and probed for total Ub, pUb(S65), Mfn2 and b-Actin with quantification for the changes in the pUB (S65): Total Ub ratio shown in (B) and Mfn2 (C), respectively normalised to b-Actin. (D) Representative immunofluorescence of primary human fibroblasts isolated from wild type controls and PINK-null Parkinson's disease patients, treated with 10 µM FCCP, 1 μM NZ-65 or 1 μM NZ-66 and immunostained for TOM20 and ULK1; counterstained with Alexa 488 and Alexa 568 antibodies. Nuclei stained with Hoechst 33342. The quantification of these immunofluorescence experiments is shown in (E). Data shown are mean±SEM, n=3, *** p<0.001, two-way ANOVA with Tukey's multiple comparisons test.
# as §2
# p-Ub (S65) [4] = experiment: Western blot, p-Ub (S65) in WT fibroblasts; details: 10 μM FCCP, 2 h
# Protocol: as §8, §2
# H1299 cells [5] = experiment: Colony formation assay, H1299; details: H1299, 100 nM, 72 hours
# Protocol: (§9) A549 and H1299 cells were seeded in 12 well plates at approximately 100 cells per well. In Example 8, wells were treated with DMSO, (+)-JQ1 or NZ-147. In Example 9, cells were treated with DMSO or NZ-175. Colonies were allowed to form over 120 h. Cells were fixed and stained with crystal violet staining solution, prepared in 70% ethanol.
# (§10) A colony formation assay was performed in A549 and H1299 cells, which were treated with DMSO, (+)-JQ1 or NZ-147 at 100 nM for 72 hours and stained with crystal violet (FIG. 10A).
# (§11) A colony formation assay was performed in A549 and H1299 cells, which were treated with DMSO or NZ-175 at 100 nM for 72 hours and stained with crystal violet (FIG. 16A).
# c-MYC [6] = experiment: Western blot, c-MYC in RPE1-hTERT-cMYC-ER cells; details: 100 nM, 72 h, 4-OHT and/or compound
# Protocol: (§12) FIG. 12. c-MYC and MAX degradation enabled by NZ-175. (A) Schematic representation of hTERT-cMYC-ER expressing RPE1 cells. Treatment with 4-hydroxytamoxifen (4-OHT) translocates c-MYC-ER from the cytoplasm into the nucleus, simulating oncogenic c-MYC. (B) Western blot of RPE1-hTERT-cMYC-ER treated with 4-OHT and/or 100 nM NZ-175 for 72 hours. Quantification of c-MYC-ER (C), c-MYC (D) and MAX (E).
# as §2, §3
# (§13) RPE1-hTERT-cMYC-ER cells were treated with 4-OHT and/or 100 nM NZ-175 for 72 h and analysed by Western blotting (FIG. 12A). The levels of c-MYC-ER (FIG. 12B), c-MYC (FIG. 12C) and MAX (FIG. 12D) were quantified.
# MAX = experiment: Western blot, MAX in RPE1-hTERT-cMYC-ER cells; details: 100 nM, 72 h, 4-OHT and/or compound
# Protocol: as §12, §2, §3, §13
# A549 cells [7] = experiment: Colony formation assay, A549; details: A549, 100 nM, 72 hours
# Protocol: as §9, §10, §11
# c-MYC [8] = experiment: c-MYC immunofluorescence in hTERT-cMYC-ER expressing RPE1 cells; details: 100 nM, 72 hours, 4-OHT and/or compound
# Protocol: FIG. 9. (A) Schematic representation of hTERT-cMYC-ER expressing RPE1 cells. Treatment with 4-hydroxytamoxifen (4-OHT) translocates c-MYC-ER from the cytoplasm into the nucleus, simulating oncogenic c-MYC. (B) Immunofluorescence images of hTERT-cMYC-ER expressing RPE1 cells treated with DMSO, (+)-JQ1 or NZ-147 at 100 nM for 72 hours, each with or without 4-OHT.
# RPE1-hTERT-c-MYC-ER cells were seeded in a 384 well PerkinElmer CellCarrier Ultra plate. In Example 8, cells were treated for 72 hours with DMSO, (+)-JQ1±4-OHT, or, NZ-147±4-OHT. In Example 9, cells were treated for 72 hours with 4-OHT, NZ-175, both, or neither. Thereafter, in both Examples 8 and 9, cells were fixed with 4% paraformaldehyde (PFA) in phosphate buffered saline (PBS) and blocked with 10% FBS and 0.1% Triton in PBS. Plates were incubated at 4° C. overnight, with 1:500 rabbit anti-c-MYC (D84C12) rabbit monoclonal antibody (#5605, Cell Signalling Technologies). The following day, plates were incubated with 1:1000 goat anti-rabbit Alexa 488 (ThermoFisher Scientific, #A-11008) and 1.62 μM Hoechst 33342 at room temperature for 1 hour before imaging. Excitation and emission spectra for each channel are as follows: Hoechst 33342=405/435-480 nm, Alexa 488=488/500-550 nm. Images were acquired at 40× and 63× magnification with water immersion lens.
molecule,measurement,setting,value
"4-hydroxytamoxifen [4-OHT, reference compound]","phospho-CHK1 (S345), replication stress",phospho-CHK1 (S345),upregulation
same,"pRPA (S4/S8), replication stress",pRPA (S4/S8),upregulation
same,"γH2AX, replication stress",γH2AX,upregulation
"Cc1sc2c(c1C)C(c1ccc(Cl)cc1)=N[C@@H](CC(=O)OC(C)(C)C)c1nnc(C)n1-2 [(+)-JQ1, reference compound]","expression of c-MYC controlled genes (MDM2, CCNE, PAICS, eIF4E)",c-MYC controlled genes,reduces the expression of c-MYC controlled genes
same,percentage of live cells,A549 cells [1],dose-dependent decrease in the percentage of live cells
same,percentage of live cells,H1299 cells [2],dose-dependent decrease in the percentage of live cells
N#CC(C#N)=NNc1ccc(OC(F)(F)F)cc1 [FCCP],p-Ub (S65) levels,p-Ub (S65) [3],does not occur in the PINK-null cells
same,p-Ub (S65) levels,p-Ub (S65) [4],substantial increase in p-Ub (S65) levels
"C/C=C/C(=O)NCc1ccc(C(=O)Nc2ccccc2Oc2ccc(OCC(=O)NCCOCCOCCOCCn3cc(COc4ccc([C@@H](NC(=O)Nc5cc(C(F)(F)F)cc(C(F)(F)F)c5)C(=O)Nc5ccc(F)cc5F)cc4)nn3)cc2)cc1 [NZ-175, (R)-4-(crotonylamidomethyl)-N-(2-(4-((14-(4-((4-(1-(3-(3,5-bis(trifluoromethyl)phenyl)ureido)-2-((2,4-difluorophenyl)amino)-2-oxoethyl)phenoxy)methyl)-1H-1,2,3-triazol-1-yl)-2-oxo-6,9,12-trioxa-3-azatetradecyl)oxy)phenoxy)phenyl) benzamide]",colony formation,H1299 cells [5],Fewer colonies formed
same,degradation of c-MYC,c-MYC [6],initiates degradation of c-MYC
same,degradation of MAX,MAX,proximal degradation of MAX
same,colony formation,A549 cells [7],Fewer colonies formed
same,c-MYC degradation (time-course immunofluorescence),c-MYC [8],c-MYC degradation
same,"phospho-CHK1 (S345), replication stress",phospho-CHK1 (S345),rescues this phenotype
same,"pRPA (S4/S8), replication stress",pRPA (S4/S8),rescues this phenotype
same,"γH2AX, replication stress",γH2AX,rescues this phenotype
